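Method: 48-hour compound exposure of cells in 96-well plates, five concentrations, linear interpolation of endpoints. TGI denotes the concentration required for complete inhibition of growth.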
What was measured:
Assay in all cases: growth of human tumour cells (NCI), 48 h
CCRF-CEM leukemia = system: CCRF-CEM leukemia
HOP-92 NSCLC = system: HOP-92 NSCLC
K-562 leukemia = system: K-562 leukemia
MALME-3M melanoma = system: MALME-3M melanoma
MDA-MB-231 breast = system: MDA-MB-231 breast
NCI-H23 lung = system: NCI-H23 lung
NCI-H522 lung = system: NCI-H522 lung
SK-MEL-5 melanoma = system: SK-MEL-5 melanoma
SW-620 colon = system: SW-620 colon
U251 CNS = system: U251 CNS

Row | SMILES | TGI (CCRF-CEM leukemia) | TGI (HOP-92 NSCLC) | TGI (K-562 leukemia) | TGI (MALME-3M melanoma) | TGI (MDA-MB-231 breast) | TGI (NCI-H23 lung) | TGI (NCI-H522 lung) | TGI (SK-MEL-5 melanoma) | TGI (SW-620 colon) | TGI (U251 CNS)
1 | COc1cc(/C=C/C(=N\NC(N)=S)c2sc(NNC(C)=O)nc2C)ccc1O | > 100 µM | > 100 µM | > 100 µM | > 100 µM | > 100 µM | > 100 µM | > 100 µM | > 100 µM | > 100 µM | > 100 µM
2 | CCOC(=O)c1cc(C)nc2c1c(=O)n(-c1ccccc1)c(=O)n2CCCCN1CCN(c2ncccn2)CC1 | 97.7 µM | > 100 µM | > 100 µM | > 100 µM | > 100 µM | > 100 µM | > 100 µM | > 100 µM | > 100 µM | > 100 µM
3 | C=C(C)CCC1C=[N+]([O-])OC(C)(C)C1(C)C (configuration not stated) | > 100 µM | > 100 µM | > 100 µM | – | > 100 µM | – | > 100 µM | > 100 µM | > 100 µM | > 100 µM
4 | CCOS(=O)(=O)c1ccc(-c2c3nc(c(-c4ccc(S(=O)(=O)OCC)cc4)c4ccc([nH]4)c(-c4ccc(S(=O)(=O)OCC)cc4)c4nc(c(-c5ccc(S(=O)(=O)OCC)cc5)c5ccc2[nH]5)C=C4)C=C3)cc1 | > 31.6 µM | > 100 µM | – | > 31.6 µM | > 31.6 µM | > 31.6 µM | > 31.6 µM | > 31.6 µM | > 31.6 µM | > 31.6 µM
5 | CCOC(=O)NN(C(=O)OCC)C(C(=O)c1ccccc1)N(NC(=O)OCC)C(=O)OCC | > 100 µM | > 100 µM | > 100 µM | > 100 µM | > 100 µM | > 100 µM | > 100 µM | > 100 µM | > 100 µM | > 100 µM
6 | CC(=O)[C@@]1(c2ccccc2)CC2(CCN(C)CC2)O[C@H]1C | – | > 100 µM | > 100 µM | > 100 µM | > 100 µM | > 100 µM | > 100 µM | > 100 µM | > 100 µM | > 100 µM
7 | O=C1CC(c2ccccc2)n2c(nc3ccccc32)N1 (configuration not stated) | – | > 100 µM | > 100 µM | > 100 µM | > 100 µM | > 100 µM | > 100 µM | 42.8 µM | > 100 µM | > 100 µM
8 | COC(=O)c1ccccc1C1CN=NC12Cc1ccc3c(c1C2=O)CCC3 (configuration not stated) | > 100 µM | > 100 µM | > 100 µM | > 100 µM | > 100 µM | > 100 µM | 54.7 µM | > 100 µM | > 100 µM | > 100 µM
9 | Cn1cc2c3ccccc3nc-2c2ccccc21 | 5.99 µM | 4.3 µM | 9.65 µM | 5.78 µM | 5.73 µM | 3.15 µM | 3.18 µM | 3.64 µM | 3.89 µM | 6.51 µM
10 | COc1ccc(-c2nnc3n(C)c4ccccc4n3c2=O)cc1 | > 100 µM | > 100 µM | – | > 100 µM | 56.2 µM | > 100 µM | > 100 µM | > 100 µM | > 100 µM | 84.9 µM
11 | O=S(=O)(c1ccccc1)c1ccc(-c2nc(-c3ccc4c(c3)Sc3ccccc3S4)cs2)cc1 | > 100 µM | 62.9 µM | > 100 µM | > 100 µM | > 100 µM | 36.1 µM | – | – | > 100 µM | > 100 µM
12 | CN1C(=O)C23CCCC2CC1(c1ccccc1)S3 (configuration not stated) | – | > 100 µM | > 100 µM | > 100 µM | > 100 µM | > 100 µM | > 100 µM | > 100 µM | > 100 µM | > 100 µM
13 | CCN(CC)CCC1CCCCN1CC(=O)N1c2cc(Cl)ccc2NC(=O)CC1C (configuration not stated) | > 100 µM | > 100 µM | > 100 µM | > 100 µM | > 100 µM | > 100 µM | > 100 µM | > 100 µM | – | > 100 µM
14 | Cc1ccnc(Nc2[nH]c(C(=O)c3ccc(Cl)cc3)c(N)c2C(=S)Nc2ccccc2)c1 | > 100 µM | 35.3 µM | 52.4 µM | 29.6 µM | 31.6 µM | 46.5 µM | 27.1 µM | – | 69.6 µM | 33.2 µM
15 | C(=C/c1nnnn1-c1ccccc1)/Nc1ccccc1 | > 100 µM | 87.3 µM | > 100 µM | > 100 µM | > 100 µM | 79.2 µM | 81.8 µM | 27.7 µM | > 100 µM | > 100 µM
16 | Fc1ccc(C(OCCN2CCC3CCC(C2)N3C/C=C/c2cccs2)c2ccc(F)cc2)cc1 (configuration not stated) | 26.7 µM | 20.3 µM | – | 18.9 µM | 21.3 µM | 20.9 µM | 17.7 µM | 12.1 µM | 19.1 µM | 18.8 µM
17 | Cc1cc(C)n(-c2nc(C)c(CCO)c(=O)[nH]2)n1 | > 100 µM | > 100 µM | > 100 µM | > 100 µM | > 100 µM | > 100 µM | > 100 µM | > 100 µM | > 100 µM | > 100 µM
18 | O=C(O)c1nn(-c2ccccc2)nc1-c1nn(-c2ccccc2)nc1C(=O)O | > 100 µM | > 100 µM | > 100 µM | > 100 µM | > 100 µM | > 100 µM | – | > 100 µM | > 100 µM | > 100 µM

Reference: PubChem BioAssay (NCI)
